# Laboratory results from ChEMBL document CHEMBL1201862, “PubChem BioAssay data set” (2004).
# Calls of active or inactive are those of the source.
# Experiments:
# [1] = growth suppression of PTEN-null colon cells, dose response, cell-based, HCT116 PTEN knockout (AID 1047); assay type: functional;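 further: HCT116 colon tumor cells with PTEN knocked out; cells exposed to compound for 60 hours before readout; potency for loss of cell viability measured by luminescence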
# Vero = Vero cell cytotoxicity, cytotoxicity control for flavivirus capping enzyme inhibitors (AID 588742); assay type: functional; settings: Chlorocebus sabaeus
# [2] = growth suppression of beta-catenin-knockout colon cells, dose response, cell-based, HCT116, human colon tumor (AID 1045); assay type: functional;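 further: HCT116 colon tumor cells with beta catenin knocked out; cells exposed to compound for 60 hours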
# Genome polyprotein = Genome polyprotein (dengue virus type 2, UniProt P29990); experiment: Dengue-2 NS5 methyltransferase inhibitors, primary screen, biochemical, confirmation dose response (AID 588689); assay type: functional
# Sequence of Genome polyprotein (P29990 2492-3391 limits assumed): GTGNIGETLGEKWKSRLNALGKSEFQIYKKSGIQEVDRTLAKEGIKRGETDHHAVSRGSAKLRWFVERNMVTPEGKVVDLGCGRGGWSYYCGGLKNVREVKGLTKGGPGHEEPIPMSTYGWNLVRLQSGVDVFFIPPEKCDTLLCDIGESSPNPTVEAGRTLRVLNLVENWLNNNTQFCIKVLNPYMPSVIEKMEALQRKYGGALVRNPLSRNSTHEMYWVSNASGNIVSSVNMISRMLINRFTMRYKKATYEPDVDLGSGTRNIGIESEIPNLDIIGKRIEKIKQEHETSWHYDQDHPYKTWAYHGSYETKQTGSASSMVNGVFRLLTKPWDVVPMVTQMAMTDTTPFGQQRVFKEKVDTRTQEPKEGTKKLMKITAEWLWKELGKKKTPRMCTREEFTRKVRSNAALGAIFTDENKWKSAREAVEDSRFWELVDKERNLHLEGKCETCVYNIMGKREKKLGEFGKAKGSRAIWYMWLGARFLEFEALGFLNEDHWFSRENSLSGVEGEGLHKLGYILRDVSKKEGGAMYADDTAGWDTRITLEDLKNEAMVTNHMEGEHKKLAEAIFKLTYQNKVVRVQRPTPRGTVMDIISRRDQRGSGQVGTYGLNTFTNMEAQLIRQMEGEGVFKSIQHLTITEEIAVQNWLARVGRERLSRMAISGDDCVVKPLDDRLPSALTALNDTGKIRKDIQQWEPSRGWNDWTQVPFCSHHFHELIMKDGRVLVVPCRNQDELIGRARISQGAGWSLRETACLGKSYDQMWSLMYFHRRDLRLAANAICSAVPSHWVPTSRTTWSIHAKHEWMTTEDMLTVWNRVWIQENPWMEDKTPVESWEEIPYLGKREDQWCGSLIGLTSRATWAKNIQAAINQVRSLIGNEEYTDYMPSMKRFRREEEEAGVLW
# Leucine aminopeptidase = molecular target: T1, Leucine aminopeptidase (Plasmodium falciparum 3D7, UniProt Q8IL11); experiment: P. falciparum M17LAP inhibitors, primary screen, biochemical, fluorogenic H-Leu-NHMec substrate, 1536-well (AID 1619); assay type: functional
# T1 sequence (Q8IL11 whole entry): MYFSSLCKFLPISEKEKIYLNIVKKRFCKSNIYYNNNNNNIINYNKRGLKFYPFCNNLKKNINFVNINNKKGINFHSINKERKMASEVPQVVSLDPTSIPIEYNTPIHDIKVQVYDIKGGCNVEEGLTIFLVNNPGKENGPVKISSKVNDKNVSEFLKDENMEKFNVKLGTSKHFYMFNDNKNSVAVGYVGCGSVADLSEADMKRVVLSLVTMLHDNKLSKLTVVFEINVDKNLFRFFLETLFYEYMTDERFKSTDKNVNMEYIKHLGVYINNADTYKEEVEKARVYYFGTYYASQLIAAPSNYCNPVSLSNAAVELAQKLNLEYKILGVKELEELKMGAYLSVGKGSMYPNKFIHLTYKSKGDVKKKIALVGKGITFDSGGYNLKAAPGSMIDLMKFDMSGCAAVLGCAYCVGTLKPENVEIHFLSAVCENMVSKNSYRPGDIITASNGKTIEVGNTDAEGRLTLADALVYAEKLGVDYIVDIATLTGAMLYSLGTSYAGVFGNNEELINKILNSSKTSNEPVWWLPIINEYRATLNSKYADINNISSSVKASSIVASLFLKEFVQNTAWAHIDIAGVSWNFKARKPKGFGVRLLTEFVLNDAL
# [3] = molecular target: T2, Adenosylmethionine-8-amino-7-oxononanoate aminotransferase (Mycobacterium tuberculosis, UniProt P9WQ81); experiment: Mycobacterium tuberculosis BioA enzyme inhibitor Measured in Biochemical System Using Plate Reader - 2163-02_Inhibitor_Dose_CherryPick_Activity.; assay type: functional, Mycobacterium tuberculosis UT205
# T2 sequence (P9WQ81 whole entry): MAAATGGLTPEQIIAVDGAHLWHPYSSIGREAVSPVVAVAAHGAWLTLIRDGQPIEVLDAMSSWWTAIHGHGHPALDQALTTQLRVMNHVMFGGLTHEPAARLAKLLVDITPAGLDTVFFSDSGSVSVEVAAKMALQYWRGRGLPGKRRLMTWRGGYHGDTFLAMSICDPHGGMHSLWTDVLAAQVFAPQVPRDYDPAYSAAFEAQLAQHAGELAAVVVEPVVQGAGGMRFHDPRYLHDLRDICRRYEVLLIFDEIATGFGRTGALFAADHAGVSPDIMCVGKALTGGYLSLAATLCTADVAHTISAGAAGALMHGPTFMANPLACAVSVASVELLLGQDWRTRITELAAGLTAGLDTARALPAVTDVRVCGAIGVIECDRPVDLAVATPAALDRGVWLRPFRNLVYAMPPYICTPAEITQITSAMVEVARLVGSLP
# [4] = test system: Streptococcus sp. 'group A'; experiment: growth inhibition of control SK(-) GAS strain, dose response, counter-screen for streptokinase expression inhibitor project, luminescence, kanamycin, BacTiterGlo, confirmation (AID 1900); assay type: functional, organism-based
# [5] = C. albicans growth with fluconazole, confirmation, fluorescence, retest (AID 2467); assay type: functional, cell-based
# Streptococcus = experiment: Group A Streptococcus viability loss, dose response, counter-screen for streptokinase expression inhibitor project, luminescence, BacTiterGlo (AID 1915); assay type: functional, organism-based;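 further: potency for reduction of bacterial viability or growth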
# [6] = NIH-3T3 fibroblast cytotoxicity, dose response, cytotoxicity control, cell-based, fluorescence, Alamar Blue, secondary assay (AID 2327); assay type: functional;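 further: NIH-3T3 mouse fibroblasts cultured with fluconazole at 8 µg/mL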
# Streptokinase A = molecular target: T3, Streptokinase A (Streptococcus pyogenes serotype M1, UniProt P10520); experiment: S. pyogenes streptokinase expression inhibitors, potency, dose response, plasminogen activation absorbance, OD405 (AID 1914); assay type: functional, Streptococcus pyogenes M1 GAS;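 further: secreted streptokinase activity via plasminogen activation per viability signal from cell pellet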
# T3 sequence (P10520 whole entry): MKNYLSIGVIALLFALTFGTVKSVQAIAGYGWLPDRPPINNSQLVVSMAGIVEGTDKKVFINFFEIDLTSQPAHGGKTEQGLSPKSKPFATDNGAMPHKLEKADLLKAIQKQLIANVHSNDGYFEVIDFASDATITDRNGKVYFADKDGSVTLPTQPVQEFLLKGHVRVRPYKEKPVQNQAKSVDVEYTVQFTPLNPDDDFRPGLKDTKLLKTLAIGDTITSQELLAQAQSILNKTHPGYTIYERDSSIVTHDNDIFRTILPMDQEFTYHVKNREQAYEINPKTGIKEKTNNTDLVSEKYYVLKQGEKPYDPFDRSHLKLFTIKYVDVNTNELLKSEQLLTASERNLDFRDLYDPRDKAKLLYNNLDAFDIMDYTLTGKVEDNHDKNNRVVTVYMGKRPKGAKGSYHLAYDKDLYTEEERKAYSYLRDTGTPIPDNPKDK
# [7] = molecular target: T4, RNA-binding protein pos-1 (Caenorhabditis elegans, UniProt G5EF15); experiment: inhibitors of POS-1/mex-3 RNA binding, dose response, biochemical, fluorescence polarization (AID 1964);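 further: purified POS-1 fused to maltose binding protein made in E. coli; potency of compounds blocking POS-1 binding to fluorescent RNA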
# T4 sequence (G5EF15 whole entry): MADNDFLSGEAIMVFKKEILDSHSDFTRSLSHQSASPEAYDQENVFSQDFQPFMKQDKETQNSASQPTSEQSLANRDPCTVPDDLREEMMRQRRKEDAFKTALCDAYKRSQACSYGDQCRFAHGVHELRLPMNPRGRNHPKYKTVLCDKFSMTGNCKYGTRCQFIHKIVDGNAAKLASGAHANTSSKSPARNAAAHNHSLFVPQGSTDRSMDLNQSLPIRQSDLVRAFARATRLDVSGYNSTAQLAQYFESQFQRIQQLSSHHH
# [8] = molecular target: T5, Zinc finger protein mex-5 (Caenorhabditis elegans, UniProt Q9XUB2); experiment: MEX-5/TCR-2 RNA interaction inhibitors, dose response, biochemical, C. elegans, fluorescence polarization (AID 1960)
# T5 sequence (Q9XUB2 whole entry): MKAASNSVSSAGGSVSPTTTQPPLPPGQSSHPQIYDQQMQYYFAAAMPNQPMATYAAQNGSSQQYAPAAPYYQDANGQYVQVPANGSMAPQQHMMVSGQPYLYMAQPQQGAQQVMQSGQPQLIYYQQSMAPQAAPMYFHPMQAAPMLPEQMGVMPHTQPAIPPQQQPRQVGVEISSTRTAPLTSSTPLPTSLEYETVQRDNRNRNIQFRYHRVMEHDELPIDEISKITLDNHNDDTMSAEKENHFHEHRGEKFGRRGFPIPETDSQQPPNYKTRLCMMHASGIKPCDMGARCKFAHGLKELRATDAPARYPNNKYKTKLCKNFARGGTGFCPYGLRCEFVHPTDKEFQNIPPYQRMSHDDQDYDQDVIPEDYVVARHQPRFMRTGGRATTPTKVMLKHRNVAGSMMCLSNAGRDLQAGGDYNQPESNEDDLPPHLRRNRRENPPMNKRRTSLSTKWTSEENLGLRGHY
# [9] = molecular target: T6, Endoribonuclease toxin MazF (Escherichia coli K-12, UniProt P0AE70); experiment: MazF toxin RNase activators, dose response, biochemical, fluorescence, single-stranded RNA substrate, uHTS hits (AID 588481); assay type: functional
# T6 sequence (P0AE70 whole entry): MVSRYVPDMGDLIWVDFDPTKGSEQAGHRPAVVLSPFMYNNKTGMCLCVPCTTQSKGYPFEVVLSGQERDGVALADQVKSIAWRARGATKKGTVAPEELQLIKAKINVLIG
# [10] = molecular target: T6, Endoribonuclease toxin MazF; experiment: fluorescent RNA oligo signal without MazF, dose response, counter-screen for MazEF activator project, biochemical, fluorescence, single-stranded RNase substrate (AID 588502); assay type: functional
# [11] = Luminescence Cell-Based Dose Retest to Confirm Inhibitors of Cancer Stem Cells. [Related pubchem assays (depositor defined):AID2717, AID2721]; assay type: functional; settings: Homo sapiens
# Cytochrome P450 2C9 = Cytochrome P450 2C9 (Homo sapiens, UniProt P11712)
# Sequence of Cytochrome P450 2C9 (P11712 whole entry): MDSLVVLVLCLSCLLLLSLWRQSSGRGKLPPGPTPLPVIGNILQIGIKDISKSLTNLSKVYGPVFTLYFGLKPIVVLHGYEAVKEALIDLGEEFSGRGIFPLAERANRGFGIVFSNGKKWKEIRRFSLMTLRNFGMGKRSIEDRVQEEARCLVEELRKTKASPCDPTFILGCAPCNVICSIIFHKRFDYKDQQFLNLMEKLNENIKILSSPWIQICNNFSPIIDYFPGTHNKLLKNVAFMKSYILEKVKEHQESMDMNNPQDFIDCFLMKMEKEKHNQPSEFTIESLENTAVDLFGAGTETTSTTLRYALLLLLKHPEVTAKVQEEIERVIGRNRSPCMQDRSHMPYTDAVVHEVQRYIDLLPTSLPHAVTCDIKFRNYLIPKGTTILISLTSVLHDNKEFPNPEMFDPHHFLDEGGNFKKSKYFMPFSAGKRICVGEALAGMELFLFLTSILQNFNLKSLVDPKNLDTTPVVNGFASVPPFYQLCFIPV
# Cytochrome P450 2C19 = Cytochrome P450 2C19 (Homo sapiens, UniProt P33261); experiment: Cytochrome panel assay with activity outcomes. Panel member name: p450-cyp2c19 Compounds with AC50 equal or less than 10 uM are considered active; assay type: functional; settings: read-out: AC50
# Sequence of Cytochrome P450 2C19 (P33261 whole entry): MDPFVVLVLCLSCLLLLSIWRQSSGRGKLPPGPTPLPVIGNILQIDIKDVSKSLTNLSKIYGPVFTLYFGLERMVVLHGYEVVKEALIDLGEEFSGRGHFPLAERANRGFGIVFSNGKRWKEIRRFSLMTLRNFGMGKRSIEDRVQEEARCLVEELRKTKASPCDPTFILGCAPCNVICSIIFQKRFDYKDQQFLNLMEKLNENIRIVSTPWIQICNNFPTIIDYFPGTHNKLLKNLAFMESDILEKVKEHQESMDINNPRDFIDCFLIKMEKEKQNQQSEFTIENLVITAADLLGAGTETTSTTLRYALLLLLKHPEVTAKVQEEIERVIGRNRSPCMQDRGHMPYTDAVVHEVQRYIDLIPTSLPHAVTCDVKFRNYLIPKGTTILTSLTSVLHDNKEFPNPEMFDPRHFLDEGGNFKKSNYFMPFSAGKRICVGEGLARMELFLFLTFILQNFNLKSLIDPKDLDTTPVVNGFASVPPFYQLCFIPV
# Cytochrome P450 1A2 = molecular target: T7, Cytochrome P450 1A2 (Homo sapiens, UniProt P05177);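 further: PubChem cytochrome P450 panel assay, CYP1A2 panel member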
# T7 sequence (P05177 whole entry): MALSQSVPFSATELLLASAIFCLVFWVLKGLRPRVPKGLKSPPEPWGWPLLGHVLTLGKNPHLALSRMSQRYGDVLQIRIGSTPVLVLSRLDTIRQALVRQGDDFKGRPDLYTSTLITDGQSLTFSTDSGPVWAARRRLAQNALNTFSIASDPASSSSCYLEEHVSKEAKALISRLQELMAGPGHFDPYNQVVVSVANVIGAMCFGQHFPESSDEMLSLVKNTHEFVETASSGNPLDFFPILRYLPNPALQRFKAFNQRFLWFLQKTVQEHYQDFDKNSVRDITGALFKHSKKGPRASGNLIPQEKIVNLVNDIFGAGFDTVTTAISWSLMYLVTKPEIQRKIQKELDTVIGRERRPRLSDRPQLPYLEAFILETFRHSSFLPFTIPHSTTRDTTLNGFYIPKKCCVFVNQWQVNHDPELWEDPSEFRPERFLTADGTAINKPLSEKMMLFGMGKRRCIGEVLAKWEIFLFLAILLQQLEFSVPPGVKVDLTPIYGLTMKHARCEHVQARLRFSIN
# [12] = Luminescence Cell-Based Dose Response HTS to Identify Activators of Luciferase Translation or Activity in H4 […] Cells. [Related pubchem assays: 1829 (Project Summary), 1814 (Primary HTS)]; assay type: functional
# H4 = experiment: Luminescence Cell-Based Dose Response HTS to Identify Activators of 5'UTR Stem-Loop Driven Prion Protein mRNA Translation in H4 Neuroglioblastoma Cells. [Related pubchem assays: 1829 (Project Summary), 1814 (Primary HTS)]; assay type: functional; settings: Homo sapiens
# [13] = Luminescence Cell-Based Dose Confirmation HTS to Identify Activators of 5'UTR Stem-Loop Driven Alpha-Synuclein mRNA Translation in H4 Neuroglioblastoma Cells. [Related pubchem assays: 1829 (Project Summary), 1814 (Primary HTS)]; assay type: functional
structure (smiles),measurement,setting,value
CC(=O)Nc1ccc(S(=O)(=O)NCCSCc2c(Cl)cccc2Cl)cc1,EC50,[1],61.4 µM (active)
same,CC50,Vero,> 40 µM (active)
same,EC50,[2],149 µM (active)
CC(C)(C)C1CCc2c(sc(NC(=O)C3CC=CCC3C(=O)O)c2C#N)C1 (stereo not given),IC50,Genome polyprotein,39.4 µM (active)
same,IC50,Leucine aminopeptidase,11 µM (active)
O=C(O)CCS(=O)(=O)c1nc(-c2cccs2)cc(C(F)(F)F)n1,AC50,[3],15.6 µM (active)
CCOCCCNC(=O)CSc1nc2nc(C)c(Cc3ccccc3)c(C)n2n1,AC50,[3],2.18 µM (active)
CCc1ccc(/C=C2\SC(=S)N(CCCC(=O)Nc3ccccc3C(=O)O)C2=O)cc1,EC50,[4],1.9 µM (active)
same,EC50,[5],2.37 µM (active)
same,CC50,Vero,> 40 µM (active)
same,EC50,Streptococcus,133 µM (active)
same,IC50,Genome polyprotein,30.8 µM (active)
same,EC50,[6],6.89 µM (inconclusive)
same,EC50,Streptokinase A,> 50 µM (not active)
CCn1c(/C=C/c2c(C)[nH]c3ccccc23)nc2ccccc2c1=O,EC50,[1],7.1 µM (active)
same,EC50,[7],> 300 µM (not active)
same,EC50,[8],> 300 µM (inconclusive)
same,EC50,[9],> 99 µM (inactive)
same,EC50,[10],> 99 µM (inactive)
same,EC50,[2],5.59 µM (active)
CCNc1nc(Oc2c(Cl)cccc2Cl)cc(C(F)(F)F)n1,EC50,[4],7.68 µM (active)
same,AC50,[11],8.17 µM (active)
same,EC50,Streptococcus,> 150 µM (not active)
same,AC50,Cytochrome P450 2C9,inconclusive
same,EC50,Streptokinase A,17.6 µM (active)
same,AC50,Cytochrome P450 2C19,2 µM (inconclusive)
same,AC50,Cytochrome P450 1A2,14.1 µM (inconclusive)
NNS(=O)(=O)c1ccc(N2CCCC2=O)c([N+](=O)[O-])c1,EC50,[9],82 µM (inactive)
same,EC50,[10],> 99 µM (inactive)
Cc1nc2ccc(C(=O)OCc3ccccc3Br)cc2nc1C,EC50,[12],66.7 µM (active)
same,EC50,H4,0.281 µM (active)
same,EC50,[9],> 99 µM (inactive)
same,EC50,[10],> 99 µM (inactive)
same,EC50,[13],10.8 µM (active)
Nn1c(SCCOc2ccccc2)nnc1-c1cccnc1,AC50,[3],1.33 µM (active)
Cc1cc(NC(=O)CN(C)S(=O)(=O)c2c[nH]cn2)ccc1Br,AC50,[3],19 µM (active)
CCC(=O)N1CC[C@@H]2[C@@H](CO)N(C)c3ccc(-c4cccc(F)c4)cc3[C@@H]21,AC50,[3],0.184 µM (active)
Cc1ccc(S(=O)(=O)N(CC(=O)N/N=C\c2cccs2)c2cccc3cccnc23)cc1,EC50,[9],> 99 µM (inactive)
same,EC50,[10],> 99 µM (inactive)
Nc1scc2c(C(=O)O)nn(-c3ccccc3)c(=O)c12,IC50,Genome polyprotein,45 µM (active)
